Test results taken from patent US11926614B2, “1,2,4-triazole derivatives as tankyrase inhibitors” (priority 2018, dated 2024).
Read-outs that look alike come from different tables or passages of the source.

Experiments:
TNKS2 = TNKS2 (Homo sapiens (Human), UniProt Q9H2K2); experiment: Biochemical IC50 TNKS2; conditions: read-out: Biochemical IC50 TNKS2
Source text: (§1) XLfit (idbs) was used to determine the IC50-values in inhibition experiments. The following formula was chosen to fit the data points (Langmuir Binding Isotherm): fit=((A+(B*x))+4(C−B)*(1−exp((−1*D)*x)))/D)), res=(y−fit)

HEK293 = experiment: Cellular IC50 HEK293; assay type: cell-based; conditions: Homo sapiens, read-out: Cellular IC50 HEK293
Source text: as §1

Chain of TNKS2 (Q9H2K2 whole entry): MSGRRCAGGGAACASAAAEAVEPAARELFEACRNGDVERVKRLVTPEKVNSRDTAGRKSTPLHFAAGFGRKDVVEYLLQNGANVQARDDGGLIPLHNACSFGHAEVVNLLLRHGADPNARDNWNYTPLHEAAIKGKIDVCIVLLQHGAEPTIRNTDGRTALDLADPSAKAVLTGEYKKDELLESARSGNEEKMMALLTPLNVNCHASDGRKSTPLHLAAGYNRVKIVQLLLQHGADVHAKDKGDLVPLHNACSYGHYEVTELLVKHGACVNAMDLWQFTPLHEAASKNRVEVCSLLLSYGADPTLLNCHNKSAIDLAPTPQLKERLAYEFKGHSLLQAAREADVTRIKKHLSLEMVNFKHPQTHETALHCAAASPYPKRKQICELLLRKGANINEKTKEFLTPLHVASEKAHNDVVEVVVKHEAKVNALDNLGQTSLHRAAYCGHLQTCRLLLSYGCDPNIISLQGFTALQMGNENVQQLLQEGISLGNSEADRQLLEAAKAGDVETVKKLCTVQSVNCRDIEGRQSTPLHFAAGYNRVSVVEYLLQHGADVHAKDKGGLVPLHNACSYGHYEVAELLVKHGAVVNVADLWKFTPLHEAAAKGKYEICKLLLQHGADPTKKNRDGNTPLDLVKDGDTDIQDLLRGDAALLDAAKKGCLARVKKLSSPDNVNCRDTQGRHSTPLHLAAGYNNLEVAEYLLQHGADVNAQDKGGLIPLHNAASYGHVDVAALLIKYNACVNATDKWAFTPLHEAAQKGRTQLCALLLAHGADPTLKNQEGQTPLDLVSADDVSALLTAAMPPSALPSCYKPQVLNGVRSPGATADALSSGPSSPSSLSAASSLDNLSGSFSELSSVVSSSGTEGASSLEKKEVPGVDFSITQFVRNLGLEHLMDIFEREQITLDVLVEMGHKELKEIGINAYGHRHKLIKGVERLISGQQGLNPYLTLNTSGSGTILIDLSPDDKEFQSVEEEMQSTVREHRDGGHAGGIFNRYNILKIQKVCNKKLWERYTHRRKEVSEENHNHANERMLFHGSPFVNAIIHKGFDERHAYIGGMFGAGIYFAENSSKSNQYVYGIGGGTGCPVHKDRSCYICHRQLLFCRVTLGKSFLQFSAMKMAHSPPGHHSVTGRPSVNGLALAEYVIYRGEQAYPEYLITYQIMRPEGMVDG

Row | Structure (SMILES) | IC50 (TNKS2) [nM] | IC50 (HEK293; HEK293) [nM] | IC50 (HEK293; HEK293, HEK293) [nM]
1 | O=C(N[C@H]1C[C@H](c2nnc(-c3ccccn3)n2-c2ccccc2F)C1)c1ccnc2cc(F)cnc12 [Example 191, 7-fluoro-N-((1S,3r)-3-(4-(2-fluorophenyl)-5-(pyridin-2-yl)-4H-1,2,4-triazol-3-yl)cyclobutyl)-1,5-naphthyridine-4-carboxamide] | 1.8 | 3.4 | –
2 | O=C(N[C@H]1C[C@H](c2nnc(-c3nccs3)n2-c2ccccn2)C1)c1cccc2cccnc12 [Example 38, N-((1r,3r)-3-(4-(pyridin-2-yl)-5-(thiazol-2-yl)-4H-1,2,4-triazol-3-yl)cyclobutyl)quinoline-8-carboxamide] | 45 | – | 46
3 | O=C(N[C@H]1C[C@H](c2nnc(-c3nccs3)n2-c2ccccc2F)C1)c1ccc(F)cc1 [Example 28, 4-fluoro-N-((1S,3r)-3-(4-(2-fluorophenyl)-5-(thiazol-2-yl)-4H-1,2,4-triazol-3-yl)cyclobutyl)benzamide] | 51 | – | 240
4 | CCOc1ccc(-c2nnc(C34CC(NC(=O)c5ccccn5)(C3)C4)n2-c2ccccc2)nc1 [Example 66, N-(3-(5-(5-ethoxypyridin-2-yl)-4-phenyl-4H-1,2,4-triazol-3-yl)bicyclo[1.1.1]pentan-1-yl)picolinamide] | 35 | – | 122
